The text below walks through data of patent US8758988B2, “Cryopreservation of articular cartilage” (The Governors of the University of Alberta, priority 2009, dated 2014).

For data set [1] the following is noted: formamide in water, cited from earlier work.
Data set [2] is described as follows: Arrhenius fit of CPA diffusion coefficients (constants and activation energies). In kind it is physicochemical. The conditions noted are these: for Ea (activation energy) / Dcwo (Arrhenius constant): Table (1), Arrhenius fit of diffusion coefficients; for Dcwo (Arrhenius constant): R = 0.001986 Kcal/(mol. K). The protocol: Full thickness AC (on 5-10 mm bone base) is harvested from the sample tissue using a hand-held coring device and held at 4° C. in 1× Dulbecco's phosphate-buffered saline (PBS) solution (pH 7.1) (Gibco Invitrogen, Carlsbad, Calif.). Each osteochondral dowel (OCD) is assigned to one of four CPA treatment groups [DMSO, PG, EG, glycerol (all at 6.5M, in 1×PBS)] and one of 11 incubation times (1 second, 1, 2, 5, 10, 15, 30, 60, 120, 180 minutes, 24 hours), as well as one of three temperatures (4, 22, 37° C.). Each combination of treatment, time, and temperature is repeated at least three times.
The tissue sample is isolated by scalpel and the tissue returned to 1×PBS for 5 min, then blotted lightly using Kimwipes® tissue (Kimberly-Clark, Roswell, Ga.) to remove excess fluid from the sample surface, weighed (W1), and immediately immersed in 5 ml of CPA solution for the specified incubation time at the specified temperature. After incubation, the sample is removed from the solution, blotted lightly and weighed for a second time (W2). The sample is then placed into a 35×10 mm cell culture dish (Corning Inc., Corning, N.Y.) containing 4 mL of 1×PBS, fully immersed in the PBS and the dish sealed with Parafilm® (American National Can, Chicago, Ill.) and held for 24 h at 22° C. under dark conditions to allow the CPA within the AC disc to fully equilibrate with the surrounding PBS solution. After 24 h, the CPA/PBS solution is mixed using a pipettor and a 1 mL sample is taken into a 1.5 mL microcentrifuge tube (Thermo Fisher Scientific, Waltham, Mass.). From this sample, 50 μL is placed into a μOSMETTE™ micro-osmometer (Precision Systems, Natick, Mass.) to determine its osmolality (Osm).
The values of the diffusion coefficients for the single CPA diffusion in water were used in the calculations. The values of the diffusion coefficients were calculated before, by fitting Fick's law to the experimental data, as explained in the preceding section of this patent labeled “Permeation Kinetics of CPAs in AC matrix”.
[formula] at x=0, and CCPA=C* at x=THK, where C* is the concentration of the CPA in the external bath at each step of the protocol. The temperature dependence of the diffusion coefficients was calculated by fitting an Arrhenius equation to the values of diffusion coefficients obtained for each CPA at 3 different temperatures as in the preceding section of this patent labeled “Permeation Kinetics of CPAs in AC matrix”. The values of diffusion coefficients were taken from Jomha et al (N M Jomha, G K Law, A Abazari, K Rekieh, J A W Elliott, L E McGann. Permeation of several cryoprotectant agents into porcine articular cartilage. Cryobiology 58(1), 110-114, 2009). For F (formamide), 2 values for diffusion coefficients of formamide in water at 2 different temperatures were extracted from the literature:
Then, these values were fitted to an Arrhenius equation to calculate the constant and activation energy for formamide. As an example, the increase in the minimum DMSO concentration in cartilage, diffusing from a bath of 3 M DMSO solution, at −10° C., was calculated by solving Eqn. (8) as the following:
First, the diffusion coefficient of DMSO in water at −10° C. was calculated from the results of the Arrhenius fit in Table (1). DDMSO(at T=−10° C.=263 K)=298.95×10^−9×exp(−3.9/0.001986/263)=1.71×10^−10 m^2/s

Like-named read-outs stand apart in the source and are kept apart here.

For `NC=O` [F (Form), formamide], the “Diffusion coefficient (m^2/s)” value in data set [1] (Temperature 278.2 K) is 0.95 × 10^−9 m^2/s; in data set [1] (Temperature 298.15 K), 1.58 × 10^−9 m^2/s. In addition, in data set [2], the “Ea (activation energy)” value was 4.198 kcal/mol. The “Dcwo (Arrhenius constant)” value in data set [2] is given as 1903.510 ×10^−9 m^2/s.
For `CC(O)CO` (stereo not shown) [P (PG), propylene glycol], in data set [2], the “Ea (activation energy)” value was determined as 6.63 kcal/mol and the “Dcwo (Arrhenius constant)” value is 16971.0 ×10^−9 m^2/s.
With `C[S+](C)[O-]` [D (DMSO), dimethyl sulfoxide], in data set [2], the “Ea (activation energy)” value stood at 3.9 kcal/mol and the “Dcwo (Arrhenius constant)” value is given as 298.95 ×10^−9 m^2/s. In data set [2] (at T=−10° C.=263 K, calculated from the Arrhenius fit in Table (1)), the “diffusion coefficient of DMSO in water” value is given as 1.71×10^−10 m^2/s.
Turning to `OCC(O)CO` [G (Gly), glycerol], in data set [2], the “Ea (activation energy)” value was determined as 5.6 kcal/mol and the “Dcwo (Arrhenius constant)” value is reported as 208.03 ×10^−9 m^2/s.
The like results for `OCCO` [E (EG), ethylene glycol] were, in that order, 3.8 kcal/mol and 183.30 ×10^−9 m^2/s.
